{"source": "patent US4146719A", "about": "“Piperazinyl derivatives of quinoline carboxylic acids” (priority 1977, dated 1979)", "key": {"[1]": {"tested_on": "Escherichia coli NIHJ JC-2", "experiment": "Influence of liver homogenate on antibacterial activity", "assay_type": "cell-based", "method": "(§1) Nutrient agar was heated and melted. […] The diameter of the inhibition zone was measured."}, "[2]": {"tested_on": "Escherichia coli NIHJ", "experiment": "Antibacterial activity in vitro, M.I.C., agar dilution streak method", "assay_type": "cell-based", "conditions": "Escherichia coli; Gram -; read-out: M.I.C."}, "[3]": {"experiment": "Concentrations in urine of mice after a single oral administration", "assay_type": "in vivo", "conditions": "mouse; for concentration at 3 h: 0-3 hours; for concentration at 3 h / concentration at 6 h / concentration at 24 h / concentration at 27 h: mean ±S.E., read-out: Urinary level; for concentration at 6 h: 3-6 hours; for concentration at 24 h: 6-24 hours; for concentration at 27 h: 24-27 hours"}, "[4]": {"tested_on": "Escherichia coli NIHJ JC-2", "experiment": "Preventive effect against ascending kidney infection in mice with Escherichia coli", "assay_type": "in vivo, Escherichia coli; mice (ddY, female)", "conditions": "for effect against ascending kidney infection (in words): mice", "method": "Ascending kidney infection was induced in female mice (strain: ddY, 6 weeks old, body weight: 22-26g), by instilling Escherlichia coli NIHJ JC-2 suspended in 0.04 ml of Tryptosoya broth (Nissan) into the urinary tract of mice anesthetized with sodium pentobarbital and by holding for 6 hours the mice in plastic tubes (diameter 25 mm) and clamping the outlet of urinary tract.\nEach of these test material was orally administered 3 hours after inoculation. Mice were sacrificed 48 hours after inoculation. Kidneys were removed aseptically and bisected, and the two halves were pressed and streaked on agar plate containing Desoxycholate medium (Nissan). The therapeutic effect of each compound was evaluated from the absence of growth on the agar surface after 20 hours of incubation at 37° C."}, "[5]": {"tested_on": "Diplococcus pneumoniae IID 552", "experiment": "Antibacterial activity in vitro, M.I.C., agar dilution streak method", "assay_type": "cell-based", "conditions": "Streptococcus pneumoniae, IID552; Gram +; read-out: M.I.C."}, "[6]": {"tested_on": "Proteus vulgaris IFO 3167", "experiment": "Antibacterial activity in vitro, M.I.C., agar dilution streak method", "assay_type": "cell-based", "conditions": "Proteus vulgaris, IFO3167; Gram -; read-out: M.I.C."}, "[7]": {"tested_on": "Escherichia coli NIHJ JC-2", "experiment": "Influence of rat bile on antibacterial activity", "assay_type": "cell-based", "conditions": "bile of rats", "method": "as §1"}, "[8]": {"tested_on": "Salmonella enteritidis IID 604", "experiment": "Antibacterial activity in vitro, M.I.C., agar dilution streak method", "assay_type": "cell-based", "conditions": "Salmonella enterica; Gram -; read-out: M.I.C."}, "[9]": {"tested_on": "Pr. vulgaris XK Denken", "experiment": "Antibacterial activity in vitro, M.I.C., agar dilution streak method", "assay_type": "cell-based, Proteus vulgaris", "conditions": "Proteus vulgaris; Gram -; read-out: M.I.C."}, "[10]": {"tested_on": "chromosome of myelocytes", "parameters": "species or system rats", "conditions": "rat, in vivo, po, 1000 mg/kg"}, "[11]": {"experiment": "Serum concentrations after a single oral administration of 50 mg/kg in rats", "assay_type": "in vivo", "conditions": "rat, 50 mg/kg oral"}, "[12]": {"tested_on": "Pseudomonas aeruginosa IID 1210", "experiment": "Preventive effect against systemic infection with Pseudomonas aeruginosa in mice", "assay_type": "in vivo, Pseudomonas aeruginosa; mice (ddY, male)", "method": "Systemic infection was produced by inoculating male mice (strain: ddY, 6 weeks old, body weight: 28-33g) in intraperitoneally with Pseudomonas aeruginosa IID 1210 suspended in 0.5 ml of Brain heart infusion broth (Eiken) containing 5% mucin. […] Each of these test materials was administered to the mice twice, immediately after and then 6 hours after the inoculation, and the therapeutic effect of each compounds was judged from the survival rate.\n(1) Miller L. C. and M. L. Tainter: Estimation of the ED50 and its error by means of logarithmic-probit graph paper Proc. Soc. Exp. Biol. Med. 57 261-264 (1944)\n(2) Litchfield J. T. and F. Wilcoxon: A simplified method of evaluating dose - effect J. Pharmacol. 92 99-113 (1948)"}, "[13]": {"tested_on": "Str. pyogenes S-8", "experiment": "Antibacterial activity in vitro, M.I.C., agar dilution streak method", "assay_type": "cell-based, Streptococcus pyogenes", "conditions": "Streptococcus pyogenes, S8; Gram +; read-out: M.I.C."}, "[14]": {"tested_on": "Ps. aeruginosa IID 1130", "experiment": "Antibacterial activity in vitro, M.I.C., agar dilution streak method", "assay_type": "cell-based, Pseudomonas aeruginosa", "conditions": "Pseudomonas aeruginosa, IID1130; Gram -; read-out: M.I.C."}, "[15]": {"conditions": "rat, in vivo"}}, "note": "Entries after “also recorded” stand apart in the source; their conditions may differ. Like-named read-outs stand apart in the source and are kept apart here."}
{"smiles": "CCn1cc(C(=O)O)c(=O)c2cc(F)c(N3CCNCC3)cc21", "note": "[Compound (II), 1-ethyl-6-fluoro-1,4-dihydro-7-(1-piperazinyl)-4-oxoquinoline-3-carboxylicacid]", "values": [{"measurement": "antibacterial activity in presence of liver homogenate (in words)", "setting": "[1]", "value": "decreased by liver and kidney homogenate"}, {"measurement": "MIC", "setting": "[2]", "value": 0.1, "unit": "µg/mL"}, {"measurement": "concentration at 3 h", "setting": "[3]; 1.56 mg/kg oral", "value": "530 ± 60", "unit": "ng/mL"}, {"measurement": "concentration at 6 h", "setting": "[3]; 1.56 mg/kg oral", "value": "220 ± 40", "unit": "ng/mL"}, {"measurement": "concentration at 24 h", "setting": "[3]; 1.56 mg/kg oral", "value": "40 ± 30", "unit": "ng/mL"}, {"measurement": "concentration at 27 h", "setting": "[3]; 1.56 mg/kg oral", "value": "30 ± 20", "unit": "ng/mL"}, {"measurement": "concentration at 3 h", "setting": "[3]; 3.13 mg/kg oral", "value": "1760 ± 190", "unit": "ng/mL"}, {"measurement": "concentration at 6 h", "setting": "[3]; 3.13 mg/kg oral", "value": "1460 ± 230", "unit": "ng/mL"}, {"measurement": "concentration at 24 h", "setting": "[3]; 3.13 mg/kg oral", "value": "270 ± 40", "unit": "ng/mL"}, {"measurement": "concentration at 27 h", "setting": "[3]; 3.13 mg/kg oral", "value": "140 ± 10", "unit": "ng/mL"}, {"measurement": "concentration at 3 h", "setting": "[3]; 6.25 mg/kg oral", "value": "3700 ± 260", "unit": "ng/mL"}, {"measurement": "concentration at 6 h", "setting": "[3]; 6.25 mg/kg oral", "value": "2040 ± 130", "unit": "ng/mL"}, {"measurement": "concentration at 24 h", "setting": "[3]; 6.25 mg/kg oral", "value": "3010 ± 170", "unit": "ng/mL"}, {"measurement": "concentration at 27 h", "setting": "[3]; 6.25 mg/kg oral", "value": "380 ± 50", "unit": "ng/mL"}, {"measurement": "concentration at 3 h", "setting": "[3]; 12.5 mg/kg oral", "value": "10300 ± 900", "unit": "ng/mL"}, {"measurement": "concentration at 6 h", "setting": "[3]; 12.5 mg/kg oral", "value": "8300 ± 700", "unit": "ng/mL"}, {"measurement": "concentration at 24 h", "setting": "[3]; 12.5 mg/kg oral", "value": "7400 ± 800", "unit": "ng/mL"}, {"measurement": "concentration at 27 h", "setting": "[3]; 12.5 mg/kg oral", "value": "1200 ± 100", "unit": "ng/mL"}, {"measurement": "concentration at 3 h", "setting": "[3]; 25.0 mg/kg oral", "value": "16200 ± 3300", "unit": "ng/mL"}, {"measurement": "concentration at 6 h", "setting": "[3]; 25.0 mg/kg oral", "value": "20300 ± 1700", "unit": "ng/mL"}, {"measurement": "concentration at 24 h", "setting": "[3]; 25.0 mg/kg oral", "value": "11700 ± 900", "unit": "ng/mL"}, {"measurement": "concentration at 27 h", "setting": "[3]; 25.0 mg/kg oral", "value": "2500 ± 200", "unit": "ng/mL"}, {"measurement": "concentration at 3 h", "setting": "[3]; 50.0 mg/kg oral", "value": "33100 ± 2800", "unit": "ng/mL"}, {"measurement": "concentration at 6 h", "setting": "[3]; 50.0 mg/kg oral", "value": "27200 ± 3200", "unit": "ng/mL"}, {"measurement": "concentration at 24 h", "setting": "[3]; 50.0 mg/kg oral", "value": "23100 ± 2000", "unit": "ng/mL"}, {"measurement": "concentration at 27 h", "setting": "[3]; 50.0 mg/kg oral", "value": "7700 ± 1100", "unit": "ng/mL"}, {"measurement": "Tmax", "setting": "[3]; oral, read-out: time of concentrations peak in urine", "value": "0 to 360", "unit": "min"}, {"measurement": "ED50", "setting": "[4]; Escherichia coli, NIHJJC2, 48 h, oral, 3 hours after inoculation, challenge 3.2 × 10^7 cells/mouse, read-out: ED50 (95% confidence limit)", "value": 15, "unit": "mg/kg"}, {"measurement": "ED90", "setting": "[4]; Escherichia coli, NIHJJC2, 48 h, oral, 3 hours after inoculation, challenge 3.2 × 10^7 cells/mouse, read-out: ED90", "value": 61, "unit": "mg/kg"}, {"measurement": "effect against ascending kidney infection (in words)", "setting": "[4]", "value": "more potent than nalidixic acid and pipemidic acid"}, {"measurement": "effect against ascending kidney infection (in words)", "setting": "[4]; listed as EXAMPLE 2", "value": "effective against ascending kidney infection with Escherichia coli in mice"}, {"measurement": "MIC", "setting": "[5]", "value": 12.5, "unit": "µg/mL"}, {"measurement": "MIC", "setting": "[6]", "value": 0.05, "unit": "µg/mL"}, {"measurement": "antibacterial activity in presence of bile (in words)", "setting": "[7]", "value": "not influenced by bile of rats"}, {"measurement": "MIC", "setting": "[8]", "value": 0.2, "unit": "µg/mL"}, {"measurement": "MIC", "setting": "[9]", "value": 0.2, "unit": "µg/mL"}, {"measurement": "effects on chromosome of myelocytes (in words)", "setting": "[10]", "value": "no effects of the test compound on chromosome of myelocytes were observed"}, {"measurement": "absorption (in words)", "setting": "[11]", "value": "rapid"}, {"measurement": "concentration at 0.5 h", "setting": "[11]; serum, 0.5 hours", "value": "870 ± 110", "unit": "ng/mL"}, {"measurement": "concentration at 1 h", "setting": "[11]; serum, 1 hour", "value": "770 ± 130", "unit": "ng/mL"}, {"measurement": "concentration at 2 h", "setting": "[11]; serum, 2 hours", "value": "520 ± 100", "unit": "ng/mL"}, {"measurement": "concentration at 4 h", "setting": "[11]; serum, 4 hours", "value": "230 ± 20", "unit": "ng/mL"}, {"measurement": "concentration at 6 h", "setting": "[11]; serum, 6 hours", "value": "110 ± 10", "unit": "ng/mL"}, {"measurement": "Tmax", "setting": "[11]; serum, read-out: time of concentration peak in serum (converted)", "value": 30, "unit": "min"}, {"measurement": "ED90", "setting": "[12]; Pseudomonas aeruginosa, IID1210", "value": 185, "unit": "mg/kg"}, {"measurement": "ED50", "setting": "[12]; Pseudomonas aeruginosa, IID1210, po, 6 h, read-out: ED50 (95% confidence limit)", "value": 98, "unit": "mg/kg"}, {"measurement": "protection against systemic infection (in words)", "setting": "[12]; mice, listed as EXAMPLE 2", "value": "effectively protected the mice from Pseudomonas aeruginosa infection; also recorded: more potent than pipemidic acid and carbenicillin"}, {"measurement": "MIC", "setting": "[13]", "value": 1.56, "unit": "µg/mL"}, {"measurement": "MIC", "setting": "[14]", "value": 0.78, "unit": "µg/mL"}, {"measurement": "dose dependence of serum concentration (in words)", "setting": "[15]", "value": "depended on the dose from 25 mg/kg to 400 mg/kg"}]}
